Laboratory results published in patent EP0341104B1, “Substituted flavonoid compounds, their salts, their manufacture and medicines containing these materials” (MERCK PATENT GmbH, priority 1988, dated 1989).

Assays:
[1] = after 20 days
[2] = tested on: tumored cells of the type YAC-1; assay: stimulation of the activity of killer cells (splenic cells of treated mice, chromium 51 release); type: in vivo, Mice BALB/C; conditions: 200 mg/kg intravenously; spleens taken 24 hours after administration; 4 hours incubation with 1 x 10⁴ YAC-1 cells; HBSS controls no measurable activity
Description: The determination of the activity of killer cells was made in accordance with the following. Mice BALB/C were treated intraveneously, either with 0.25 ml of HBSS or with 200 mg/kg of a compound of formula (IV). Twenty four hours after administration of the compound, the spleens of the animals were reduced to a state of suspension. Debris and cellular wastes are eliminated by sedimentation and the red corpuscles are lysed with distilled water. The cellular suspension obtained was then filtered over sterile gauze and washed twice with HBSS.
Different quantities of splenic cells are incubated with 1 x 10⁴ tumored cells of the type YAC-1 stained with chromium 51. The length of incubation was 4 hours at 37°C in a RPMI 1640-type medium supplemented with 5% of FBS, pencillin (100 U/ml) streptomycin (100 µg/ml), L-glutamine (20 mM), sodium pyruvate (1 mM), and nonessential amino acids (0.1 mM) in a buffered medium. The floating bodies are removed and a count effectuated.
The results are expressed in lytic units (UL₁₀): where UL₁₀ is the quantity necessary to effectuate lysis of 1 x 10⁴ target cells. For example, it was discovered that the compound of formula 19, provided 80 UL. The compound of formula 25 provided 60 UL. The compound of formula 42 provided 110 UL.

interferon (IFN) = type: in vivo, Mice BALB/C; conditions: 200 mg/kg intravenously; unit = quantity of IFN in 1 ml of sample reducing viral lysis by 50%; HBSS controls no induction
in vivo = conditions: mouse, 400 mg/kg
[3] = tested on: natural killer cell activity; conditions: Wiltrout et al, J. Immunol. 1988; cited from earlier work
[4] = tested on: ristocetin-induced platelet agglutination; conditions: Rubin et al, Lancet 1987; cited from earlier work
murine renal cancer = conditions: Wiltrout et al, J. Immunol. 1988; cited from earlier work

Row | Structure (SMILES) | activity of killer cells in lytic units (UL₁₀) [2] | Interferon activity (interferon (IFN)) | other results
1 | Nc1nc(-c2cccc3c(=O)cc(-c4ccccc4)oc23)cs1 [formula 58, (AMINO-2-THIAZOL-4-YL)-8-PHENYL-2-4H-[1] BENZOPYRANONE-4] |  |  | mortality rate [1]: no deaths
2 | O=C(O)Cc1cccc2c(=O)cc(-c3ccc(-c4ccccc4)cc3)oc12 [formula 19, PHENYL-4-PHENYL)2-OXO-4-4H-(1)-BENZOPYRAN-8-ACETIC ACID] | 80 UL | 1000 units of IFN | 
3 | O=C(O)Cc1ccc2c(=O)cc(-c3ccccc3)oc2c1 [formula 29, OXO-4-PHENYL-2-4H-(1) BENZOPYRAN-7-ACETIC ACID] |  |  | mortality at 480 h (in vivo): 10%
4 | O=C(O)Cc1cccc2c(=O)cc(-c3ccccc3)oc12 [flavone-8-acetic acid] |  |  | systemic natural killer cell activity [3]: augments; ristocetin-induced platelet agglutination [4]: inhibits; mortality at 480 h (in vivo): 100%; synergy with interleukin-2 (IL-2) for treatment of murine renal cancer (murine renal cancer): synergizes with interleukin-2 (IL-2)
5 | O=C(O)c1cccc2ccc3c(=O)cc(-c4ccccc4)oc3c12 [formula 67, OXO-4-PHENYL-2-4H-NAPHTO[1,2-b]PYRANONE-4] |  | 1000 units of IFN | 
6 | O=C(O)Cc1cccc2c(=O)cc(-c3ccc([N+](=O)[O-])cc3)oc12 [formula 25, (NITRO-4-PHENYL)-2-OXO-4-4H-(1)-BENZOPYRAN-8-ACETIC ACID] | 60 UL | 1000 units of IFN | 
7 | C=C(C(=O)O)c1cccc2c(=O)cc(-c3ccccc3)oc12 [formula 42, (PHENYL-2-OXO-4-4H-(1) BENZOPYRAN-8-YL)-2-ACRYLIC ACID] | 110 UL |  | 
